Consider four compounds from patent US10251835B2, “Cranial delivery of pharmaceuticals” (GLIA, LLC, priority 2013, dated 2019).

For experiment [1], the system named is dogs with mucus discharge from the eyes. Briefly: Treatment of dry eye in domestic animals. The experiment is classed as in vivo, dog. As to conditions: bulldog; tacrolimus directly in the eye. An excerpt: A puggle presented with mucus discharge from the eyes. […] The owner reported that the dog has this problem spring and fall, which indicates it is allergic seasonal rhinitis. The reported use took place in the fall.
A bulldog diagnosed with Sjogren's syndrome had mucus discharge from the eyes.

The test system of a further experiment is person. Briefly: Rapid anti-anxiety treatment. In kind it is in vivo, human. As to conditions: 1 mg midazolam to forehead. The protocol:
A person applied 1 mg of midazolam to their forehead on three separate occasions. […] These effects lasted for 4 to 6 hours after application of the drug.

The test system of experiment [2] is patient with cognitive impairment due to surgery. Briefly: Treatment of surgically induced cognitive deficits, cranially delivered dronabinol. The experiment is classed as in vivo, human. An excerpt:
The patient described in Example 1 suffered from a co-morbid condition of cognitive impairment due to surgery to remove a frontal lobe glioblastoma multiforma. The cognitive impairment continued for two years following the surgery at which time treatment with cranially delivered dronabinol was begun.

Experiment [3] relates to patient unable to swallow with loss of appetite. Briefly: Treatment of drug-induced anorexia and oropharyngeal dysphagia, dronabinol applied to forehead. In kind it is in vivo, human. The protocol: A patient had been on dexamethasone therapy for 20 months following surgery, radiation, and chemotherapy. After tapering the dose of dexamethasone from 16 mg per day to 1.5 mg per day, the patient was unable to swallow and reported a loss of appetite. Dronabinol was administered to the patient's forehead once per day at 2.5 mg per dose. Improvement in swallowing and appetite were noted within 24 hours of the first administration.
After three weeks of continued dronabinol therapy, application was again stopped for 24 hours, resulting in the same loss of appetite and difficulty swallowing.
The effect of oral administration of dronabinol was tested after another two weeks as an alternative to the topical route of administration described above. […] Typical meals include steak, meatball sandwich and fruit drinks.
The patient had also ceased dexamethasone dosing very early on.

Experiment [4] relates to person with CYMBALTA induced loss of appetite. As to conditions: 2 mg dronabinol to forehead daily with oral CYMBALTA; 2 week course. The protocol:
The subject topically applied 2 mg of dronabinol to their forehead daily together with the oral CYMBALTA™.

Experiment [5] relates to person with late stage Alzheimer disease. Nature of the experiment: Treatment of symptoms associated with Alzheimer's disease. In kind it is in vivo, human. As to conditions: approximately 2 mg dronabinol to forehead, then daily dosing. The protocol: A person diagnosed with late stage Alzheimer disease five years ago suffers from episodes of extreme agitation, aggressive behavior, and nocturnal restlessness and disorientation that is difficult for their caregiver to manage. Approximately 2 mg dronabinol was delivered cranially to their forehead.

The subject of experiment [6] is patient with corneal Herpes zoster. Nature of the experiment: Treatment of herpetic keratitis. The experiment is classed as in vivo, human. As to conditions: for intraocular pressure: ganciclovir gel plus progesterone to forehead. From the text:
A person suffered a first onset of active corneal Herpes zoster. They presented with classic Herpes Zoster symptoms including, left hemisphere unilateral skin lesions on forehead, bridge of nose area and down the nose not including the tip; left cornea dendrites, keratitis and edema; loss of functional vision, elevated intraocular pressure as high as 42 mm Hg, conjunctival irritation and redness and anesthetic cornea. There were also general body flu symptoms.
The patient was initially treated with ophthalmic prednisolone acetate 1% up to 5 times daily, ophthalmic antibiotics, non-prescription ophthalmic wetting agents, and lubrication with gels administered to the eye. Additional drug therapies included systemic oral valcyclovir as high as 2 g per day and medications to reduce intraocular pressure.
Despite the therapy, symptom flare-up was as frequent as 2 weeks to 1 month over the past 10 years. Although intraocular pressure returned to within the normal range, cataracts formed as a result of long term use of corticosteroids.
The cornea surface contour became increasingly distorted with prominent ridges. There was incursion of capillaries across the conjunctiva into the cornea, both superficially and deep. Deposition of phospholipids through a leaching process occluded the cornea with grey color deposits on about 50% of its surface.
Corneal thinning had progressed to near perforation levels which required preparation for corneal patch surgery.
At this point, 1% topical progesterone (approximately 1 mg of progesterone) was first administered as a method to keep the cornea from perforating and the tear film intact. The drug was applied to the forehead 4 times daily together with topical antibiotics and corticosteroids.
After stabilizing the cornea, antiviral treatment was begun with ganciclovir gel (0.15%; 0.15 mg of drug) applied five times daily to the forehead together with once daily progesterone (1%; 1 mg of drug) and a nightly drop of ophthalmic antibiotic. Intraocular pressure measured at the onset of ganciclovir treatment was 18 mm Hg.
The patient reported a decrease in eye strain as a result of an improvement in tear film. […] Over the next two weeks, inflammation was further reduced and visual acuity increased somewhat when the head was tilted back. During the first full month of treatment, the affected eye generally felt comfortable. There was a lack of inflammation, and some vision returned to the threshold of functionality. Intraocular pressure remained normal in the range of 16 mm Hg.
There was modest improvement in reading the eye chart, and corneal staining due to defects was minimized. Intraocular pressure remained normal in both eyes at about 16 mm Hg during this period. The phospholipid deposits further reduced in density and began to give the appearance of lesser areas of concentrations. Nearly functional vision could be achieved by positioning the head back and viewing through the central cornea. The residual clear area of the cornea became more so and less inflamed. Through the end of the second month, improvement to the cornea accelerated. The pupil was now clearly visible and more light was entering the eye.
The patient was examined regularly by an ophthalmologist, and after three and one half months of treatment. The intraocular pressure was normal at 12 mm Hg. […] Intraocular pressure has remained in the same range for more than one year.

In experiment [7] the test system is subject with left-side trigeminal neuralgia and facial droop. Briefly: Treatment of trigeminal neuralgia and facial palsy. In kind it is in vivo, human. As to conditions: progesterone 1% (1 mg) four times daily to forehead followed by 0.15 g ganciclovir (0.15% formulation) up to five times daily. The protocol: A subject presented with left-side trigeminal neuralgia and left side facial droop of 10 years duration. Therapy was initiated by topically applying progesterone (1% by weight) equivalent to 1 mg four times daily to the patient's forehead. This was followed by application of 0.15 g ganciclovir (as a 0.15% by weight formulation) up to five times daily.

“Also recorded” adds a separate entry of the source.

With `C=CC[C@@H]1/C=C(\C)C[C@H](C)C[C@H](OC)[C@H]2O[C@@](O)(C(=O)C(=O)N3CCCC[C@H]3C(=O)O[C@H](/C(C)=C/[C@@H]3CC[C@@H](O)[C@H](OC)C3)[C@H](C)[C@@H](O)CC1=O)[C@H](C)C[C@@H]2OC` [tacrolimus], the “mucus discharge from the eyes” value in experiment [1] is given as “without completely stopping the discharge”.

With `Cc1ncc2n1-c1ccc(Cl)cc1C(c1ccccc1F)=NC2` [midazolam], in the experiment with person, the duration of effects fell in the range of 4 to 6 h; the effect produced entry was “mild sedation and anti-anxiety”. This compound came in with a time to response with person (three separate occasions) of at most 5 min.

With `CCCCCc1cc(O)c2c(c1)OC(C)(C)[C@@H]1CCC(C)=C[C@@H]21` (relative stereo) [dronabinol, (6aR-trans)-6a,7,8,10a-tetrahydro-6,6,9-trimethyl-3-pentyl-6H-dibenzo[b,d]pyran-1-ol], in experiment [2], the “scar tissue around the area of surgery as detected by imaging” value was “noticeable decrease in scar tissue”. Further, in experiment [2] (begun two years after surgery), the “cognitive function (noted by physicians)” value was “dramatic improvement in cognitive function”. Besides, in experiment [3] (after missing one day of dronabinol therapy), the “appetite and swallowing after missing dronabinol therapy” value is “decrease in appetite and difficulty swallowing liquids”. Also, in experiment [3] (after one year of cranial dosing with challenge stops and restarts), the “dose requirement on continued treatment” value is on record as “No increase in dose has been required; also recorded: daily dosing is necessary for continued effectiveness”. Besides, the “appetite and swallowing (patient report)” value in experiment [3] (dronabinol 2.5 mg applied to forehead, four weeks, restarts and single rescue doses) was “healthy appetite and no problems swallowing; also recorded: normal appetite and swallowing after one day; also recorded: complete reversal of symptoms within about two hours; also recorded: rescued again by single dose applied cranially”. In addition, the “time to improvement in swallowing and appetite” value in experiment [3] (dronabinol 2.5 mg per dose to forehead once per day, after first administration) is at most 24 h. Further, the “swallowing and chewing under oral administration” value in experiment [3] (oral 2.5 mg dronabinol instead of topical, within one day) was “difficulty swallowing and chewing”. Moreover, the “prevention of CYMBALTA induced loss of appetite” value in experiment [4] is on record as “prevented the CYMBALTA™ induced loss of appetite”. For the same compound, the “agitation, aggressive behavior, nocturnal restlessness symptoms” value in experiment [5] is listed as “improvement in their symptoms was observable within two hours; also recorded: less frequent nocturnal disturbances; also recorded: additional significantly noticeable improvement in their symptoms”.

With `Nc1nc(O)c2ncn(COC(CO)CO)c2n1` [ganciclovir], the “inflammation, visual acuity and state of affected eye” value in experiment [6] (ganciclovir gel 0.15% (0.15 mg) five times daily plus progesterone 1% (1 mg) once daily to forehead, nightly ophthalmic antibiotic, 1 week to 3.5 months) is “less inflammation and a slight improvement in visual acuity; also recorded: some functional vision was attained; also recorded: stable and normalizing”. Besides, the intraocular pressure in experiment [6] (after three and one half months) is given as 12 mm Hg; in experiment [6] (both eyes, examination period up to third month), “about 16 mm Hg”; in experiment [6] (first full month of treatment) it was about 16 mm Hg. Also, the “facial muscles contracted for 10 years” value in experiment [7] is listed as “relaxation of facial muscles”.
